Experimental data: patent US9855270B2, “Methods and compositions for modulating estrogen receptor mutants” (priority 2014, dated 2018)
Substitutions are numbered along the chain they refer to. Read-outs that look alike come from different tables or passages of the source.

How the values were obtained:
ER-α E380Q = biological target: T1, ER-α E380Q (Homo sapiens, UniProt P03372, E380Q); details: Agonist Mode; for Efficacy (Emax): −E2, relative to vehicle treated wild-type ER-α
T1 sequence (P03372 1-595 E380Q): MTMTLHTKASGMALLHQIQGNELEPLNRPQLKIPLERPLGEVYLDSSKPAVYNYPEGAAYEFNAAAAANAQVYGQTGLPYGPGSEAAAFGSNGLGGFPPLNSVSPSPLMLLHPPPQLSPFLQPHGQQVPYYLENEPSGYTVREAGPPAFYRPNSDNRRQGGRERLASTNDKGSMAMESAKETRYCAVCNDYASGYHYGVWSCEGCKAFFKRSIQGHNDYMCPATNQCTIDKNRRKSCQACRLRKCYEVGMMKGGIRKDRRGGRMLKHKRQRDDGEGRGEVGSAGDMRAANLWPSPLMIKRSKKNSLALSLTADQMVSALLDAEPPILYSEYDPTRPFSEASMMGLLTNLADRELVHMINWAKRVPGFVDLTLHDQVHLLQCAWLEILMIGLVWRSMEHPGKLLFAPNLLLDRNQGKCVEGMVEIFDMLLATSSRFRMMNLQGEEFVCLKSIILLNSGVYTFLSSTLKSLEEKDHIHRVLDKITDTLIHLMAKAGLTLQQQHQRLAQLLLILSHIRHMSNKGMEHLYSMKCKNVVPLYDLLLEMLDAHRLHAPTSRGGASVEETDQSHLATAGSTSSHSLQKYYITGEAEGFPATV
Protocol: (§1) Cells were transiently transfected using
(§2) Triplicate transfections were performed using 180 ng 3×ERE-TK-Luc (reporter vector), 30 ng pRL-CMV (normalization vector), and 270 ng pCDNA ER-α (or ER-α mutation).
(§3) Following 24 hour incubation the medium was removed and the cells were lysed in 40 μL of lysis buffer (25 mM Tris Phosphate, 2 mM CDTA, 10% Glycerol, 0.5% Triton X-100, 2 mM DTT).

ER-α L536P = biological target: T2, ER-α L536P (Homo sapiens, UniProt P03372, L536P); details: Agonist Mode; for Efficacy (Emax): −E2, relative to vehicle treated wild-type ER-α
T2 sequence (P03372 1-595 L536P): T1 sequence (P03372 1-595 E380Q) with Q380E, L536P
Protocol: as §1, §2, §3

ER-α L536R = biological target: T3, ER-α L536R (Homo sapiens, UniProt P03372, L536R)
T3 sequence (P03372 1-595 L536R): T1 sequence (P03372 1-595 E380Q) with Q380E, L536R
Protocol: as §1, §2, §3

ER-α Y537N = biological target: T4, ER-α Y537N (Homo sapiens, UniProt P03372, Y537N)
T4 sequence (P03372 1-595 Y537N): T1 sequence (P03372 1-595 E380Q) with Q380E, Y537N
Protocol: as §1, §2, §3

[1] = Agonist Mode, −E2, relative to vehicle treated wild-type ER-α
[2] = Antagonist Mode, +E2, relative to vehicle treated wild-type ER-α

| Compound | Percent inhibition compared to vehicle (ER-α E380Q; −E2) [%] | Efficacy (Emax) (ER-α E380Q) | Percent inhibition compared to vehicle (ER-α L536P; −E2) [%] | Efficacy (Emax) (ER-α L536P) | Percent inhibition compared to vehicle (ER-α L536R; Agonist Mode, −E2) [%] | Efficacy (Emax) (ER-α L536R; [1]) | Percent inhibition compared to vehicle (ER-α L536R; Antagonist Mode, +E2) [%] | Efficacy (Emax) (ER-α L536R; [2]) | Percent inhibition compared to vehicle (ER-α Y537N; Agonist Mode, −E2) [%] | Efficacy (Emax) (ER-α Y537N; [1]) | Percent inhibition compared to vehicle (ER-α Y537N; Antagonist Mode, +E2) [%] | Efficacy (Emax) (ER-α Y537N; [2]) |
| --- | --- | --- | --- | --- | --- | --- | --- | --- | --- | --- | --- | --- |
| CC1=C(c2cccc(O)c2)[C@H](c2ccc(OCCN3CC(CF)C3)cc2)Oc2ccc(O)cc21 [Compound 4-23, (S)-2-(4-(2-(3-(fluoromethyl)azetidin-1-yl)ethoxy)phenyl)-3-(3-hydroxyphenyl)-4-methyl-2H-chromen-6-ol] | 73 | 0.57 | 68 | 1.01 | 80 | 0.29 ± 0.22 | 94 | 0.15 ± 0.07 | 92 | 0.32 ± 0.27 | 96 | 0.16 ± 0.08 |
| C[C@]12CC[C@@H]3c4ccc(O)cc4C[C@@H](CCCCCCCCC[S+]([O-])CCCC(F)(F)C(F)(F)F)[C@H]3[C@@H]1CC[C@@H]2O (stereo partly drawn) [Fulvestrant] |  | 0.38 |  | 0.42 |  | 0.32 ± 0.12 |  | 0.30 ± 0.11 |  | 0.30 ± 0.18 |  | 0.20 ± 0.20 |
